Laboratory results taken from patent US20240309015A1, “Methods for the Treatment of Fibrotic Disease” (SHY Therapeutics, LLC, priority 2021, published 2024).

Assays:
[1] = test system: KRas wild type; test: Ras GTP Binding Domain Inhibition Assay, KRas wild type; conditions: at 20 μM; for KRas wild type + SOS: % inh.: with SOS; for KRas wild type: % inh.: without SOS
Method in brief: (§1)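 Ni-plate-captured His-tagged GTPase (10-30 μg/mL, o/n 4° C); cpd 20 μM or serial dilution (IC50), 1% DMSO, 3 h RT; optional Sos 556-1049 His-tag (10-30 μg/mL) last hour. Cy3- or Cy5-GTP 100 nM, 45 min RT, 3× wash, fluorescence read.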

[2] = test system: Smad2/3 phosphorylation; test: Phospho-Smad2/3 Inhibition Assay in PANC-1; assay type: cell-based; conditions: Homo sapiens; 10 μM compound, 3 h; TGF-b1 stimulated PANC-1; western blot; read-out: % inh of Smad2/3 phosphorylation in PANC-1
Method: Cell lines: Human tumor-derived pancreatic cancer cell line Panc-1 and mouse muscle myoblast C2C12 were purchased from American Type Culture Collection and grown in complete DMEM-High Glucose, supplemented with penicillin (100 U/mL), streptomycin (100 μg/mL), and 10% heat-inactivated FBS at 37° C. in a humidified incubator with 5% CO2.
Method: Cells were plated at 350000 cells/well density in a 12-well plate, allowed 3 hours to adhere to the plate, then starved in the appropriate medium in the presence of 0.5% FBS overnight. The small molecules to be tested were added to the cells in the final concentration of 10 μM in the presence of 0.3% DMSO for 3 hours incubation at 37° C. For IC50 value determination, serial dilutions of compounds were added to cells under the same conditions. Next, Panc-1 cells were stimulated with 10 ng/ml TGF-b1 for 1 hour, and C2C12 cells were stimulated with 10 ng/ml TGF-b1 for 20 minutes (recombinant human TGF-b1, R&D Systems). After stimulation cells were lysed with lysis buffer containing 1% Triton X-100, EDTA, and Halt™ Protease & Phosphatase Inhibitor Cocktail (Thermo Scientific). Protein concentration was assessed by BCA protein assay (Thermo Scientific). Phosphorylation level of Smad2/Smad3 was determined by western blot.
Western blot protocol: Equal amounts of protein (15-50 μg) were separated by SDS-PAGE and transferred to nitrocellulose membranes (Invitrogen by Thermo Fisher Scientific). The membrane was stained with Ponceau S Stain (Boston BioProducts) to verify uniform protein loading. Membranes were blocked with 10% milk and phosphorylation levels of Smad2/Smad3 were assessed by incubating overnight at 4° C. with the following antibodies: Phospho-Smad2 (Ser465/467) and Phosph-Smad3 (Ser423/425), both from Cell Signaling Technology. Then the membranes were incubated with HRP-conjugated secondary antibody (Jackson Immunoresearch, West Grove, PA). Bands were incubated in Amersham ECL Prime Western Blotting Detection Reagent (GE Healthcare) and visualized using the ChemiDoc MP imaging system (Bio-Rad).

[3] = test system: Rho-A; test: Ras GTP Binding Domain Inhibition Assay, Rho-A; conditions: at 20 μM; without SOS
Method in brief: as §1

[4] = test system: IL-6; test: Mouse IL6 Quantification Assay (LPS-stimulated RAW 264.7); assay type: cell-based; set-up: dose or concentration left out as unconfirmed; conditions: RAW264.7, ELISA, read-out: IL-6: % inh.
[5] = test system: TNFα; test: Mouse TNF Alpha Quantification Assay (LPS-stimulated RAW 264.7); assay type: cell-based; set-up: dose or concentration left out as unconfirmed; conditions: RAW264.7, ELISA, read-out: TNFα: % inh.
[6] = test system: KRas G12C mutant; test: Ras GTP Binding Domain Inhibition Assay, KRas G12C mutant; conditions: at 20 μM; for KRas G12C mutant + SOS: % inh.: with SOS; for KRas G12C mutant: % inh.: without SOS
Method in brief: as §1

[7] = test system: KRas G12D mutant; test: Ras GTP Binding Domain Inhibition Assay, KRas G12D mutant; conditions: at 20 μM; for KRas G12D mutant + SOS: % inh.: with SOS; for KRas G12D mutant: % inh.: without SOS
Method in brief: as §1

Compound | KRas wild type + SOS: % inh. [1] | KRas wild type: % inh. [1] | inhibition at 10 µM [2] | Rho-A: % inh. [3] | inhibition [4] | inhibition [5] | KRas G12C mutant + SOS: % inh. [6] | KRas G12C mutant: % inh. [6] | KRas G12D mutant + SOS: % inh. ([7]; Table 7) | KRas G12D mutant + SOS: % inh. ([7]; Table 8) | KRas G12D mutant: % inh. ([7]; Table 7) | KRas G12D mutant: % inh. ([7]; Table 8)
COCCCOc1nc(-c2nccn2C)nc2sc(-c3ccn(C(C)C)n3)c(C)c12 [Compound 32, 6-(1-Isopropyl-1H-pyrazol-3-yl)-4-(3-methoxypropoxy)-5-methyl-2-(1-methyl-1H-imidazol-2-yl)thieno[2,3-d]pyrimidine] | D (D = 76-100% inhibition) | D (D = 76-100% inhibition) | 0% | D (D = 76-100% inhibition) | 76 to 100% | 76 to 100% | C (C = 46-75% inhibition) | C (C = 46-75% inhibition) | C (C = 46-75% inhibition) | C (C = 46-75% inhibition) | C (C = 46-75% inhibition) | C (C = 46-75% inhibition)
COc1cc(Nc2nc(-c3nccn3C)nc3sc(-c4ccn(C(C)C)n4)c(C)c23)ncn1 [Compound 19, 6-(1-Isopropyl-1H-pyrazol-3-yl)-N-(6-methoxypyrimidin-4-yl)-5-methyl-2-(1-methyl-1H-imidazol-2-yl)thieno[2,3-d]pyrimidin-4-amine] | D (D = 76-100% inhibition) | D (D = 76-100% inhibition) | 76 to 100% | D (D = 76-100% inhibition) | 76 to 100% | 76 to 100% | D (D = 76-100% inhibition) | C (C = 46-75% inhibition) | C (C = 46-75% inhibition) | C (C = 46-75% inhibition) | B (B = 26-45% inhibition) | B (B = 26-45% inhibition)
COCCCCOc1nc(-c2nccn2C)nc2sc(-c3ccn(C(C)C)n3)c(C)c12 [Compound 34, 6-(1-Isopropyl-1H-pyrazol-3-yl)-4-(4-methoxybutoxy)-5-methyl-2-(1-methyl-1H-imidazol-2-yl)thieno[2,3-d]pyrimidine] | 0 (0 = 0% inhibition) | A (A = 1-25% inhibition) | 0% | 0 (0 = 0% inhibition) | 76 to 100% | 0% | A (A = 1-25% inhibition) | 0 (0 = 0% inhibition) | 0 (0 = 0% inhibition) | 0 (0 = 0% inhibition) | A (A = 1-25% inhibition) | A (A = 1-25% inhibition)
COc1cccc(-c2sc3nc(-c4nccn4C)nc(N[C@@H]4CC[C@@H](OC)C4)c3c2-c2ccccc2)c1F (racemic) [Compound 41, 6-(2-Fluoro-3-methoxyphenyl)-N-((1R,3R)-3-methoxycyclopentyl)-2-(1-methyl-1H-imidazol-2-yl)-5-phenylthieno[2,3-d]pyrimidin-4-amine] | D (D = 76-100% inhibition) | B (B = 26-45% inhibition) | 76 to 100% | 0 (0 = 0% inhibition) | 76 to 100% | 76 to 100% | D (D = 76-100% inhibition) | B (B = 26-45% inhibition) | C (C = 46-75% inhibition) | C (C = 46-75% inhibition) | A (A = 1-25% inhibition) | A (A = 1-25% inhibition)
COCCn1c(-c2nccn2C)nc2sc(-c3ccn(C(C)C)n3)c(C)c2c1=O [Compound 29, 6-(1-Isopropyl-1H-pyrazol-3-yl)-3-(2-methoxyethyl)-5-methyl-2-(1-methyl-1H-imidazol-2-yl)thieno[2,3-d]pyrimidin-4(3H)-one] | D (D = 76-100% inhibition) | D (D = 76-100% inhibition) | 0% | D (D = 76-100% inhibition) | 76 to 100% | 76 to 100% | D (D = 76-100% inhibition) | C (C = 46-75% inhibition) | C (C = 46-75% inhibition) | C (C = 46-75% inhibition) | C (C = 46-75% inhibition) | C (C = 46-75% inhibition)
Cc1c(-c2ccn(C(C)C)n2)sc2nc(-c3nccn3C)nc(NCCN3CCOCC3)c12 [Compound 22, 6-(1-Isopropyl-1H-pyrazol-3-yl)-5-methyl-2-(1-methyl-1H-imidazol-2-yl)-N-(2-morpholinoethyl)thieno[2,3-d]pyrimidin-4-amine] | D (D = 76-100% inhibition) | D (D = 76-100% inhibition) | 0% | D (D = 76-100% inhibition) | 76 to 100% | 1 to 25% | D (D = 76-100% inhibition) | D (D = 76-100% inhibition) | D (D = 76-100% inhibition) | D (D = 76-100% inhibition) | D (D = 76-100% inhibition) | D (D = 76-100% inhibition)
COc1cccc(-c2sc3nc(-c4nccn4C)nc(N[C@H]4C[C@H](OC)C4)c3c2-c2ccccc2)c1F [Compound 40, 6-(2-Fluoro-3-methoxyphenyl)-N-((1r,3r)-3-methoxycyclobutyl)-2-(1-methyl-1H-imidazol-2-yl)-5-phenylthieno[2,3-d]pyrimidin-4-amine] | D (D = 76-100% inhibition) | C (C = 46-75% inhibition) | 76 to 100% | B (B = 26-45% inhibition) | 76 to 100% | 76 to 100% | D (D = 76-100% inhibition) | C (C = 46-75% inhibition) | D (D = 76-100% inhibition) | D (D = 76-100% inhibition) | C (C = 46-75% inhibition) | C (C = 46-75% inhibition)
